Laboratory results from patent US20050239758A1, “Hormone treatment of multiple sclerosis” (priority 2004, published 2005).

B1: myelin basic protein (protein, UniProt P02686 1-304, looked up)
Myelin basic protein: MGNHAGKRELNAEKASTNSETNRGESEKKRNLGELSRTTSEDNEVFGEADANQNNGTSSQDTAVTDSKRTADPKNAWQDAHPADPGSRPHLIRLFSRDAPGREDNTFKDRPSESDELQTIQEDSAATSESLDVMASQKRPSQRHGSKYLATASTMDHARHGFLPRHRDTGILDSIGRFFGGDRGAPKRGSGKDSHHPARTAHYGSLPQKSHGRTQDENPVVHFFKNIVTPRTPPPSQGKGRGLSLSRFSWGAEGQRPGFGYGGRASDYKSAHKGFKGVDAQGTLSKIFKLGGRDSRSGSPMARR

Tests used:
[1] = tested on: multiple sclerosis symptoms; experiment: Clinical case: daily sublingual dilute progesterone in a patient with multiple sclerosis; format: in vivo, human
Procedure: An adult human presented with a diagnosis of multiple sclerosis (MS) from a group of neurologists specializing in MS. They had confirmed the diagnosis with magnetic resonance imaging (MRI) scans showing demylination of major nerves. They were evaluated for hormone allergy therapy by assessing their anti-hormone antibodies and found to have elevated levels of anti-progesterone IgG and IgM antibodies. They then received progesterone 1:10 sublingual treatment, daily. Within a month of their initial diagnosis, they rated their symptoms at a 10 on a scale of 1-10, with 10 representing the worst symptoms experienced. A year after diagnosis, but before beginning low dosage hormone therapy, they rated their symptoms at a 5. They then began receiving daily sublingual progesterone (1:10) treatment. They reported an immediate reduction of their symptoms to a 3 or 4. After over a year of therapy, they reported their symptoms to be generally about a 2 with days where they have been a 0 or 1. On one occasion, the subject ran out of drops and, therefore, temporarily discontinued therapy.

serum anti-estrogen IgG = experiment: Competition ELISA: absorption of serum anti-estrogen IgG with specific and non-specific antigens; format: binding, human; details: for Percent inhibition of serum anti-estrogen IgG after absorption: absorption with 250 μg/mL antigen, NS = non-significant; for Inhibition of anti-estrogen binding to estrogen (IgG): antigen in liquid phase, range over the samples; for Absorption of serum IgG antibodies by antigen added to the liquid phase: competition ELISA, result in words
Procedure: (§1) Enzyme-linked immunosorbent assay (ELISA) was used for testing antibodies against estrogen and progesterone in the sera of patients with premenstrual asthma and with control subjects. Different rows of microtiter plates (Costar) were coated either with 100 μl of BSA concentration of 10 μg/mL or 100 μl of estrogen-BSA or progesterone-BSA optimal concentration of 10 μg/mL in 0.1 m carbonate-bicarbonate buffer (pH 9.5). Plates were incubated overnight at 4° C. and then washed three times with […] of Tris-buffered saline (TBS) containing 0.05% Tween 20, pH 7.4. […] Plates were washed with PBS-Tween 20 and then 100 μl of control or patient's serum was added to duplicate wells coated either with BSA alone or with estrogen or progesterone bound to BSA. […] Plates were incubated for 2 h (for IgG and IgM) and overnight (for IgE), and then washed four times with PBS-Tween 20. Alkaline-phosphatase-conjugated goat anti-human IgG, IgM or IgE F(ab′)2 fragment at optimal dilution of 1:700 (IgG); 1:500 (IgM) and 1:250 (IgE) was added to corresponding wells. The plates were then incubated for an additional 2 h at room temperature. After washing five times with TBS-Tween buffer, the enzyme reaction was started by adding 100 μl of para-nitrophenylphosphate in 0.1 mL of diethanolamine buffer (1 mg/ml) containing 1 mM MgCl2 and sodium azide, pH 9.8. The reaction was stopped 45 minutes later with 50 μl of 1 N NaOH. The optical density was read at 405 nm (OD405) with a microtiter reader. […] However, this non-specific O.D. was subtracted from wells coated with estrogen or progesterone bound to BSA.
(§2) For this, microtiter plates were coated with hormones and blocked by the addition of 2% BSA in PBST. 100 μl of serum diluent buffer was added to all wells. […] After a 60-minute incubation, 100 μl serum anti-estrogen or anti-progesterone was added to all wells. […] Results were calculated as a percentage of inhibition in antigen-antibody reaction.
(§3) To examine whether antibodies to estrogen or progesterone are specific or cross-reactive, competition ELISA was performed by adding specific and non-specific antigens in liquid phase and examined prevention of serum antibody binding to the antigen in solid phase. […] This cross-reaction between estrogen and progesterone antibodies may be due to structural similarities between these two hormones.

serum anti-estrogen IgE = experiment: Competition ELISA: absorption of serum anti-estrogen IgE with specific and non-specific antigens; format: binding, human; details: for Percent inhibition of serum anti-estrogen IgE after absorption: absorption with 250 μg/mL antigen, NS = non-significant; for Inhibition of IgE anti-estrogen binding: antigen in liquid phase, range over the samples; for Absorption of serum IgE antibodies by antigen added to the liquid phase: competition ELISA, result in words
Procedure: as §1, §2, §3

Molecule	Symptoms on temporary discontinuation of therapy ([1]; ran out of drops, over a period of several days until therapy restarted)	Self-rated symptoms, generally, after over a year of therapy ([1]; scale of 1-10, 10 = worst, progesterone 1:10 sublingual daily, rated 5 before therapy)	Percent inhibition of serum anti-estrogen IgG after absorption (serum anti-estrogen IgG; Sample 1)	Percent inhibition of serum anti-estrogen IgG after absorption (serum anti-estrogen IgG; Sample 2)	Percent inhibition of serum anti-estrogen IgG after absorption (serum anti-estrogen IgG; Sample 3)	Inhibition of anti-estrogen binding to estrogen (IgG) (serum anti-estrogen IgG)	Absorption of serum IgG antibodies by antigen added to the liquid phase (serum anti-estrogen IgG)	Percent inhibition of serum anti-estrogen IgE after absorption (serum anti-estrogen IgE; Sample 1)	Percent inhibition of serum anti-estrogen IgE after absorption (serum anti-estrogen IgE; Sample 2)	Percent inhibition of serum anti-estrogen IgE after absorption (serum anti-estrogen IgE; Sample 3)	Inhibition of IgE anti-estrogen binding (serum anti-estrogen IgE)	Absorption of serum IgE antibodies by antigen added to the liquid phase (serum anti-estrogen IgE)
CC(=O)[C@H]1CC[C@H]2[C@@H]3CCC4=CC(=O)CC[C@]4(C)[C@H]3CC[C@]12C [progesterone]	steadily worsened	~2										
Estrogen-BSA			(67%)	(59%)	(52%)	52-67%	significantly absorbed	(55%)	(54%)	(62%)	54-62%	significantly absorbed
Progesterone-BSA [Pn]			(52%)	(45%)	(41%)	41-52%	significantly absorbed	(37%)	(41&) %	(43%)	37-43%	significantly absorbed
bovine serum albumin [BSA]							did not absorb					did not absorb
B1							did not absorb					did not absorb
